The values below come from US10105367B2, “Therapeutic thiophene-, furan-, and pyridine-fused azolopyrimidin-5-(6h)-ones” (Dart Neuroscience (Cayman) Ltd., priority 2012, dated 2018).

For orientation: IC50 means the midpoint of a concentration-inhibition curve. A low value points to greater potency in that assay.

Where only a bound is given, the exact number is not on record here.

The first test concerns the target human PDE1B (Homo sapiens (Human), UniProt Q01064). The experiment in a line: PDE1B inhibitory assay (IMAP TR-FRET). The settings on record: PDE1B pIC50, negative log of half-maximal molar inhibitory concentration; 200 nM FAM-cAMP, Calmodulin, CaCl2. On the technique in general: TR-FRET usually uses a lanthanide donor and a delayed reading to cut background.
Regarding `COc1ccc(Cn2c(=O)n3ncnc3c3cc(CCNC4CCOCC4)cnc32)cc1` [Example 212, 6-(4-Methoxybenzyl)-9-(2-(tetrahydro-2H-pyran-4-ylamino)ethyl)pyrido[3,2-e][1,2,4]triazolo[1,5-c]pyrimidin-5(6H)-one], the IC50 lay in the range of 1000 to 10000 nM.

Take `COc1ccc(Cn2c(=O)n3ncnc3c3cc(CCNC(C)c4ccccc4)cnc32)cc1` (stereo not shown) [Example 213]: the IC50 lay in the range of 100 to 1000 nM.

As for `C=Cc1cnc2c(c1)c1ncnn1c(=O)n2Cc1ccc(OC)cc1` [Example 214, 6-(4-Methoxybenzyl)-9-vinylpyrido[3,2-e][1,2,4]triazolo[1,5-c]pyrimidin-5(6H)-one], the IC50 lay in the range of 100 to 1000 nM.

`COCOCc1cnc2c(c1)c1ncnn1c(=O)n2Cc1ccc(OC)cc1` [Example 215] registered an IC50 of 100 to 1000 nM.

Compound `C=C(OCC)c1cnc2c(c1)c1ncnn1c(=O)n2Cc1ccc(OC)cc1` [Example 216] gave an IC50 of 100 to 1000 nM.

As for `COc1ccc(Cn2c(=O)n3ncnc3c3cc(CO)cnc32)cc1` [Example 217, 9-(Hydroxymethyl)-6-(4-methoxybenzyl)pyrido[3,2-e][1,2,4]triazolo[1,5-c]pyrimidin-5(6H)-one], the IC50 lay within 100 to 1000 nM.

`COc1ccc(Cn2c(=O)n3ncnc3c3cc(CN4CC5CC4CO5)cnc32)cc1` (stereo not shown) [Example 218, 9-(2-Oxa-5-azabicyclo[2.2.1]heptan-5-ylmethyl)-6-(4-methoxybenzyl)pyrido[3,2-e][1,2,4]triazolo[1,5-c]pyrimidin-5(6H)-one]: the IC50 lay within 100 to 1000 nM.

As to `COc1ccc(Cn2c(=O)n3ncnc3c3cc(CN(C)C)cnc32)cc1` [Example 219], the IC50 fell in the range of 1000 to 10000 nM.

Take `COc1ccc(Cn2c(=O)n3ncnc3c3cc(CN4CCN(C)CC4)cnc32)cc1` [Example 221]: the IC50 fell in the range of 100 to 1000 nM.

The compound `COc1ccc(Cn2c(=O)n3ncnc3c3cc(CN4CCOC(C)(C)C4)cnc32)cc1` [Example 223] returned an IC50 of 100 to 1000 nM.

As for `COc1ccc(Cn2c(=O)n3ncnc3c3cc(CN4CC(F)(F)OC(F)(F)C4)cnc32)cc1` [Example 226], the IC50 is 100 to 1000 nM.

For `COc1ccc(Cn2c(=O)n3ncnc3c3cc(CN4CC5CCC(C4)O5)cnc32)cc1` [Example 227], the IC50 is 100 to 1000 nM.

`COc1ccc(Cn2c(=O)n3ncnc3c3cc(CN4CCOCC4C)cnc32)cc1` (stereo not shown) [Example 230] registered an IC50 of 100 to 1000 nM.

Turning to `COc1ccc(Cn2c(=O)n3ncnc3c3nc(CN4C[C@@H](C)O[C@@H](C)C4)cnc32)cc1` [Example 231], the IC50 is 100 to 1000 nM.

For the compound `COc1ccc(Cn2c(=O)n3ncnc3c3cc(CN4CCCN(C)CC4)cnc32)cc1` [Example 232], the IC50 fell in the range of 1000 to 10000 nM.

Take `COc1ccc(Cn2c(=O)n3ncnc3c3cc(CN4CCCOCC4)cnc32)cc1` [Example 233]: the IC50 fell in the range of 100 to 1000 nM.

Regarding `COc1ccc(Cn2c(=O)n3ncnc3c3cc(CN4CCCN(C(C)=O)CC4)cnc32)cc1` [Example 234], the IC50 is 100 to 1000 nM.

In the case of `COc1ccc(Cn2c(=O)n3ncnc3c3cc(CN(C)C4CCCCC4)cnc32)cc1` [Example 235], the IC50 fell in the range of 1000 to 10000 nM.

In the case of `COc1ccc(Cn2c(=O)n3ncnc3c3cc(CN4CCC(OC)CC4)cnc32)cc1` [Example 236], the IC50 fell in the range of 100 to 1000 nM.

As for `COc1ccc(Cn2c(=O)n3ncnc3c3cc(CN(C)C4CCOCC4)cnc32)cc1` [Example 237], the IC50 was 1000 to 10000 nM.

Staying with this test, now noted: negative log of half-maximal molar inhibitory concentration; 200 nM FAM-cAMP, Calmodulin, CaCl2.
With `COc1ccc(Cn2c(=O)n3ncnc3c3cc(CN4C[C@@H](C)O[C@@H](C)C4)cnc32)cc1` [Example 220], the “PDE1B pIC50” value is on record as more than 7.

Consider `CCC1CN(Cc2cnc3c(c2)c2ncnn2c(=O)n3Cc2ccc(OC)cc2)CCO1` (stereo not shown) [Example 224], for which the “PDE1B pIC50” value is given as more than 7.

On to `COc1ccc(Cn2c(=O)n3ncnc3c3cc(CN4CC(C)OCC4C)cnc32)cc1` (stereo not shown) [Example 225], for which the “PDE1B pIC50” value is more than 7.

For `COc1ccc(Cn2c(=O)n3ncnc3c3cc(CN4CCC5(CCOCC5)N4C)cnc32)cc1` [Example 228], the “PDE1B pIC50” value is given as more than 7.

As to `COc1ccc(Cn2c(=O)n3ncnc3c3cc(CN4CCOC(C)C4)cnc32)cc1` (stereo not shown) [Example 229], the “PDE1B pIC50” value is given as more than 7.
